From paper PMC5856786, “A DHODH inhibitor increases p53 synthesis and enhances tumor cell killing by p53 degradation blockage” (Nature Communications, 2018)

Key:
[1] = molecular target: recombinant human DHODH (Homo sapiens, UniProt Q02127); test: Endpoint DHODH enzyme assay (coenzyme Q10, DCIP); assay type: biochemical; design: purchased Prospecbio ENZ-642; details: compound at 10 µM; Supplementary Table 5, 20,000 compound library
Procedure: In Supplementary Tables 5 and 6, endpoint assays were performed with 10 nM recombinant human DHODH (#ENZ-642, Prospecbio). The reaction mixture consisted of 624.6 µM DL-dihydroorotic acid, 66.4 µM coenzyme Q10, 66.4 µM 2,6-dichlorophenolindophenol sodium salt (DCIP) (all reagents purchased from Sigma-Aldrich) in enzyme buffer (50 mM Tris-HCl, pH 8.0, 0.1% Triton X-100, 150 mM KCl). Loss in absorbance by DCIP was measured at 595 nm after incubation at RT for 60 min.

[2] = test system: ARN8 cells; test: SRB growth/viability assay, ARN8; assay type: cell-based, human; details: ARN8; Fig. 4e
Procedure: SRB assays measuring protein content were performed in 96-well plates as previously described.

Chain of recombinant human DHODH (Q02127 31-395 limits assumed): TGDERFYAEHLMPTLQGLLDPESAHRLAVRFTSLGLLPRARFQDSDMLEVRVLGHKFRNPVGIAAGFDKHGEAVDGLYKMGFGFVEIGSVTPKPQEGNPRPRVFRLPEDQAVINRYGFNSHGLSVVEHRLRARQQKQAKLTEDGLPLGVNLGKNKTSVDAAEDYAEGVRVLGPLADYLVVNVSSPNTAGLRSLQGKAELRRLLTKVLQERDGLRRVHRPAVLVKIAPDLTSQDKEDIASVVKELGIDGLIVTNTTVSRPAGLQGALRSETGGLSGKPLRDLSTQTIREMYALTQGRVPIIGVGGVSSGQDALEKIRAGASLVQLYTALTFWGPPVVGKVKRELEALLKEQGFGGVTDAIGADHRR

| remaining activity at 10 µM [1] [%] | Structure (SMILES) | other results |
| --- | --- | --- |
| – | Cc1ccccc1-c1noc(-c2ccc(N3CCC[C@H]3CO)nc2)n1 [compound 54631106, ((2S)-1-{5-[3-(2-methylphenyl)-1,2,4-oxadiazol-5-yl]-2-pyridinyl}-2-pyrrolidinyl)methanol] | remaining DHODH activity (%) Average [1]: 5.94% |
| 2.28 | CCC(C)Nc1ccc(-c2nc(-c3cccc(OC)c3OC)no2)cn1 (centres unmarked) [compound 55410102, N-(sec-butyl)-5-[3-(2,3-dimethoxyphenyl)-1,2,4-oxadiazol-5-yl]-2-pyridinamine] | – |
| 9.4 | CCN(CC)c1ccc(-c2nc(-c3cccc(OC)c3OC)no2)cn1 [compound 57235883, 5-[3-(2,3-dimethoxyphenyl)-1,2,4-oxadiazol-5-yl]-N,N-diethyl-2-pyridinamine] | – |
| 16.7 | COc1cccc(-c2noc(-c3ccc(N4CCCCC4)nc3)n2)c1OC [compound 57999135, 5-[3-(2,3-dimethoxyphenyl)-1,2,4-oxadiazol-5-yl]-2-(1-piperidinyl)pyridine] | – |
| 88.5 | COc1ccc(C2c3[nH]c4ccccc4c3CCN2Cc2ccoc2)c(F)c1 (stereo not drawn) [compound 76026685, 1-(2-fluoro-4-methoxyphenyl)-2-(3-furylmethyl)-2,3,4,9-tetrahydro-1H-beta-carboline] | – |
| 42.3 | COc1cccc(-c2noc(-c3ccc(N4CCCC(O)C4)nc3)n2)c1OC (centres unmarked) [compound 78928129, 1-{5-[3-(2,3-dimethoxyphenyl)-1,2,4-oxadiazol-5-yl]-2-pyridinyl}-3-piperidinol] | – |
| – | COc1ccc(C2c3[nH]c4ccccc4c3CCN2Cc2nccs2)cc1C (stereo not drawn) [compound 90739158, 1-(4-methoxy-3-methylphenyl)-2-(1,3-thiazol-2-ylmethyl)-2,3,4,9-tetrahydro-1H-beta-carboline] | remaining DHODH activity (%) Average [1]: 91.88% |
| – | C/C(O)=C(\C#N)C(=O)Nc1ccc(C(F)(F)F)cc1 [teriflunomide, reference compound] | effects on ARN8 growth and p53-dependent transcription ± uridine compared with HZ00 [2]: phenocopied the effects of HZ00 |
